The test system of one assay is apolipoprotein B (B100). The experiment in a line: Secretion of apolipoprotein B (B100) from HepG2 cells into the test medium, ELISA. It counts as cell-based, human. As to conditions: 150 μM, 24 hr culture, FIG. 1. The method, then:
(§1) A test medium containing 150 μM of linolic acid menthol ester (1% BSA-DMEM) was provided. In this test medium, human liver-derived HepG2 cells were cultured for 24 hr, and the cells and the medium were collected.
(§2) Evaluation 2: Test on Secretion (Inhibition/Enhancement) of Apolipoproteins A and B
(§3) The amount of apolipoprotein A (A1) and apolipoprotein B (B100) secreted from the human liver-derived HepG2 cells into the test medium was measured by the ELISA method.
On the technique in general: An ELISA detects its analyte on a solid surface through an enzyme-linked reagent.

The next assay concerns apolipoprotein A (A1). Description: Secretion of apolipoprotein A (A1) from HepG2 cells into the test medium, ELISA. Type of assay: cell-based, human. As to conditions: 150 μM, 24 hr culture, FIG. 2. The protocol: as §1, §2, §3

Turning to `CCCCC/C=C\C/C=C\CCCCCCCC(=O)OC1CC(C)CCC1C(C)C` (centres unmarked) [linolic acid menthol ester], the “amount of apolipoprotein B (B100) secreted” value with apolipoprotein B (B100) is on record as “inhibit the secretion of apolipoprotein B (B100)”. In addition, the “amount of apolipoprotein A (A1) secreted” value with apolipoprotein A (A1) is “significantly enhance the secretion of apolipoprotein A (A1)”.
